The conditions of the data set: Liquid; for Critical pressure: Direct measurement; for Critical temperature: Visual observation in an unstirred cell.

Critical pressure and Critical temperature data for six compounds are collected here from the NIST ThermoML archive (doi:10.1021/acs.jced.8b00585).

± gives the expanded uncertainty stated by the source.

In the case of `CCCCCCCCCC` [decane], the Critical pressure came out at 2106 ± 15 kPa and the Critical temperature worked out at 617.7 ± 0.4 K.

For `CCCCCCCCC` [nonane], the Critical pressure amounted to 2278 ± 16 kPa and the Critical temperature worked out at 594.5 ± 0.4 K.

As for `CCCCCCCC` [octane], the Critical pressure worked out at 2496 ± 16 kPa and the Critical temperature worked out at 568.9 ± 0.4 K.

With `CCCCCCC` [heptane], the Critical pressure amounted to 2736 ± 17 kPa and the Critical temperature stood at 540.1 ± 0.4 K.

As for `CCCCO` [butan-1-ol], the Critical pressure is listed as 4406 ± 22 kPa and the Critical temperature stood at 563 ± 0.4 K.

With `CCCCCC` [hexane], the Critical pressure is on record as 3033 ± 18 kPa and the Critical temperature was found to be 507.8 ± 0.4 K.
